Test results reported in patent US11644469B2, “HIF-1 and HIF-2 inhibitors” (UNIVERSITY OF SOUTHAMPTON, priority 2016, dated 2023).
Where two headings read alike, the source gives them in different places. Residues, ends and D or L forms follow the SMILES beside them.

Columns and labels:
HIF-1α (Trx-1α, 1α PASB) [1] = target: T1, HIF-1α (Trx-1α, 1α PASB) (Homo sapiens, UniProt Q16665); assay: Thermal shift assay, HIF-1α; format: binding; details: 1 mM compound
T1 construct: 238-349; made in house
Method: (§1) The binding of the compounds to their targets was assessed by measuring changes in the melting temperature of their target proteins HIF-1α and HIF-2α (known as a thermal shift assay) and by microscale thermophoresis (MST). The data for the thermal shift assay is summarized in FIG. 1, while the binding constants (Kd) derived from MST is shown in FIG. 3. Compounds that are effective inhibitors decrease the melting temperatures of the proteins. […] The compounds may bind to HIF 1α/2α or 1β in order to disrupt the dimerization, and PASB may be the responsible domain.
(§2) Thermal shift data of thioredoxin-tagged longer constructs and PASB domains with the identified polypeptides are shown in FIG. 1. Compounds that are effective inhibitors decrease the melting temperatures of the proteins.
(§3) Thermal denaturation of HIF proteins was performed in 20 μL reactions in triplicate using a Bio-Rad CFX Connect Real-Time System. Proteins were used at either 5 μM (Trx-1α, Trx-2α and GST-1β) or 15 μM (His-tagged PASB domains) in HIF assay buffer, with 10 mM DTT and SYPRO orange dye (Life Technologies) at a final concentration of 8× (relative to 5000× stock), and supplemented with either DMSO or compound dissolved in DMSO at the stated concentrations. The reaction plate was assembled on ice, then transferred to the pre-chilled thermal cycler, held at 10° C. for 5 min (heated lid, 105° C.), then the temperature ramped to 95° C. Fluorescence was recorded at 0.5° C. increments, holding for 5 sec at each temperature. Data were plotted using GraphPad Prism 6, and melting temperatures calculated using the first derivative method in which the peak (i.e. the steepest transition between data points) represents the point at which 50% of the protein sample is denatured. Errors are quoted as the inherent error associated with the first derivative of the data, i.e. ±0.25° C. for Tm values and ±0.5° C. for ΔTm values.

HIF-1α (Trx-1α, 1α PASB) [2] = assay: Thermal shift assay, HIF-1α; format: binding; details: effective inhibitors decrease the melting temperature
Method: as §1, §2, §3

HIF-2α (Trx-2α, 2α PASB) [3] = target: T2, HIF-2α (Trx-2α, 2α PASB) (Homo sapiens, UniProt Q99814); assay: Thermal shift assay, HIF-2α; format: binding; details: 1 mM compound
T2 construct: 240-350; made in house
Method: as §1, §2, §3

HIF-1β (GST-1β, 1β PASB) [4] = target: T3, HIF-1β (GST-1β, 1β PASB) (Homo sapiens, UniProt P27540); assay: Thermal shift assay, HIF-1β (negative control); format: binding; details: for activity against HIF-1β in thermal shift assay: negative control protein
T3 construct: 356-474; made in house
T3 sequence (P27540 356-474): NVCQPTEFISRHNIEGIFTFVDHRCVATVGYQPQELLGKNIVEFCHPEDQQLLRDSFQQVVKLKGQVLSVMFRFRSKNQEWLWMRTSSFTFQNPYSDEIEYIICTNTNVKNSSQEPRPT
Method: as §1, §2, §3

MCF-7 cells = assay: Cell permeability and localisation by fluorescence microscopy; format: cell-based; details: 24 hr
Method: FIGS. 10A-D and 10A′-D′ show cell permeability tested using fluorescently labeled-CRVIIF (SEQ ID NO 4) in MCF-7 cells.
For initial compound permeability experiments, 1.5 mL MCF-7 cells were plated on 3 cm petri dishes (200,000 cells/plate) and grown at 37° C. After 24 hr, cells were incubated with fresh media containing the stated concentrations of fluor-CRVIIF (SEQ ID NO 4) (0.5% DMSO) or 66 μM CP-61 control compound (0.66% DMSO) for a further 24 hr. Cells were washed twice with PBS and imaged live in plates. For co-localisation experiments, an 8-well Lab-Tek Chamber Slide (Nunc) was treated with collagen prior to plating 25,000 MCF-7 cells/well. After 24 hr, cells were dosed with 300 μL fresh media containing the stated concentrations of fluor-CRVIIF (SEQ ID NO 4) (0.5% DMSO) and/or 5 μg/mL FM 4-64FX Membrane Stain (Life Technologies) and incubated for a further 24 hr. Cells were washed with 2×300 μL PBS, fixed with 150 μL 10% formalin in PBS for 5-10 min, then washed again with PBS. Growth chambers were removed and nuclear staining was achieved using Vectashield Mounting Medium with DAPI (Vector Laboratories) prior to sealing the slide with a coverslip. Cells were imaged using a fluorescent microscope.

HIF-2α (Trx-2α, 2α PASB) [5] = assay: Thermal shift assay, HIF-2α; format: binding; details: effective inhibitors decrease the melting temperature
Method: as §1, §2, §3

HIF-1β (GST-1β, 1β PASB) [6] = assay: Thermal shift assay, HIF-1β (negative control); format: binding; details: 1 mM compound; GST-1β 5 μM
Method: as §1, §2, §3

[7] = 1 mM compound, His-tagged PASB domain 15 μM
[8] = His-tagged PASB domain 15 μM, read-out: ΔTm 1α PASB
[9] = Trx-1α 5 μM, read-out: ΔTm Trx-1α
[10] = His-tagged PASB domain 15 μM, read-out: ΔTm 2α PASB
[11] = Trx-2α 5 μM, read-out: ΔTm Trx-2α

Row | ΔTm 1α PASB (HIF-1α (Trx-1α, 1α PASB) [1]; His-tagged PASB domain 15 μM) [°C] | ΔTm Trx-1α (HIF-1α (Trx-1α, 1α PASB) [1]; Trx-1α 5 μM) [°C] | ΔTm 2α PASB (HIF-2α (Trx-2α, 2α PASB) [3]; His-tagged PASB domain 15 μM) [°C] | ΔTm Trx-2α (HIF-2α (Trx-2α, 2α PASB) [3]; Trx-2α 5 μM) [°C] | ΔTm 1β PASB (HIF-1β (GST-1β, 1β PASB) [4]; [7]) [°C] | ΔTm at 1000 µM (HIF-1α (Trx-1α, 1α PASB) [1]; [8]) [°C] | ΔTm at 1000 µM (HIF-1α (Trx-1α, 1α PASB) [1]; [9]) [°C] | ΔTm at 1000 µM (HIF-2α (Trx-2α, 2α PASB) [3]; [10]) [°C] | ΔTm at 1000 µM (HIF-2α (Trx-2α, 2α PASB) [3]; [11]) [°C] | ΔTm at 1000 µM (HIF-1β (GST-1β, 1β PASB) [4]; [7]) [°C] | activity against HIF-1β in thermal shift assay (HIF-1β (GST-1β, 1β PASB) [4]) | Compound | activity against HIF-1α in thermal shift assay (HIF-1α (Trx-1α, 1α PASB) [2]) | cell permeability (MCF-7 cells) | activity against HIF-2α in thermal shift assay (HIF-2α (Trx-2α, 2α PASB) [5]) | ΔTm GST-1β (HIF-1β (GST-1β, 1β PASB) [6]) [°C]
1 | −0.5 | −2.5 | −2.5 | −2 | −0.5 |  |  |  |  |  |  | SGWEMIQRR (cyclic; listed as Homo sapiens) | only active against HIF-1α |  |  | 
2 |  |  |  |  |  |  |  |  |  |  |  | fluor-CRVIIF: fluorescently labelled cyclo-CRVIIF; FITC-maleimide bound to the cysteine (cyclo(C(FITC‑maleimide)RVIIF); listed as Homo sapiens) |  | appears to cross cell membrane |  | 
3 |  |  |  |  |  | -1 | -1.5 | -2.5 | -2.5 | -0.5 | not against HIF-1β | CC[C@H](C)[C@@H]1NC(=O)[C@H](CC(C)C)NC(=O)[C@H](CCCCN)NC(=O)[C@H](CS)NC(=O)[C@H](Cc2ccccc2)NC(=O)[C@H]([C@@H](C)CC)NC1=O [CKLIIF] (cyclo(CKLIIF); ring closure inferred) | show activity |  | show activity | 
4 |  |  |  |  |  | -2 | 0.5 | -4 | -4 | -1 | not against HIF-1β | CC[C@H](C)[C@@H]1NC(=O)[C@H](CC(C)C)NC(=O)[C@H](CC(C)C)NC(=O)[C@H](CCCNC(=N)N)NC(=O)[C@H](CS)NC(=O)[C@H](Cc2ccccc2)NC1=O [CRLLIF, cyclo-CRLLIF] (cyclo(CRLLIF); ring closure inferred) | show activity |  | show activity | 

Row | Compound | ΔTm 1α PASB (HIF-1α (Trx-1α, 1α PASB) [1]; His-tagged PASB domain 15 μM) [°C] | ΔTm Trx-1α (HIF-1α (Trx-1α, 1α PASB) [1]; Trx-1α 5 μM) [°C] | ΔTm 2α PASB (HIF-2α (Trx-2α, 2α PASB) [3]; His-tagged PASB domain 15 μM) [°C] | ΔTm Trx-2α (HIF-2α (Trx-2α, 2α PASB) [3]; Trx-2α 5 μM) [°C] | ΔTm 1β PASB (HIF-1β (GST-1β, 1β PASB) [4]; [7]) [°C] | ΔTm at 1000 µM (HIF-1α (Trx-1α, 1α PASB) [1]; [8]) [°C] | ΔTm at 1000 µM (HIF-1α (Trx-1α, 1α PASB) [1]; [9]) [°C] | ΔTm at 1000 µM (HIF-2α (Trx-2α, 2α PASB) [3]; [10]) [°C] | ΔTm at 1000 µM (HIF-2α (Trx-2α, 2α PASB) [3]; [11]) [°C] | ΔTm at 1000 µM (HIF-1β (GST-1β, 1β PASB) [4]; [7]) [°C] | activity against HIF-1β in thermal shift assay (HIF-1β (GST-1β, 1β PASB) [4]) | activity against HIF-1α in thermal shift assay (HIF-1α (Trx-1α, 1α PASB) [2]) | cell permeability (MCF-7 cells) | activity against HIF-2α in thermal shift assay (HIF-2α (Trx-2α, 2α PASB) [5]) | ΔTm GST-1β (HIF-1β (GST-1β, 1β PASB) [6]) [°C]
5 | CC[C@H](C)[C@@H]1NC(=O)[C@H](C(C)C)NC(=O)[C@H](CCCNC(=N)N)NC(=O)[C@H](CS)NC(=O)[C@H](Cc2ccccc2)NC(=O)[C@H]([C@@H](C)CC)NC1=O [CRVIIF, cyclo-CRVIIF] (cyclo(CRVIIF); ring closure inferred) |  |  |  |  |  | -1.5 | -1 | -2.5 | -2 | -0.5 | not against HIF-1β | show activity |  | show activity | −0.5
